Data: patent publication US20080021026A1, “BENZOTHIOPHENE INHIBITORS OF RHO KINASE” (priority 2006, published 2008)

Biological target: T1, recombinant N-terminal GST-tagged human Rho kinase 2 (ROCK2, amino acids 1-552) (Homo sapiens, UniProt O75116)
T1 construct: ROCK2, amino acids 1-552; purchased Invitrogen Inc. PV3759
Experiment: In vitro Rho kinase assay (luciferase-based ATP consumption), ROCK2
Format: biochemical
Settings: recombinant GST-tagged human ROCK2, luciferase-based ATP consumption; read-out: ROCK2 IC50
Description: In Vitro Rho Kinase Assay
Rho kinase biochemical assays described below depend on firefly luciferase-based, indirect measurement of total ATP consumption by the kinase following incubation with substrate and ATP. 25 μl of Rho kinase assay buffer (20 mM Tris-HCL [pH 7.5], 1 mM MgCl2, 0.4 mM CaCl2, 0.15 mM EGTA, 0.1 mg/ml bovine serum albumin) containing 0.82 μg/ml of recombinant N-terminal GST-tagged human Rho kinase 1 (ROCK1, amino acids 1-535, Invitrogen Inc., cat. #PV-3691) or recombinant N-terminal GST-tagged human Rho kinase 2 (ROCK2, amino acids 1-552, Invitrogen Inc., cat #PV3759), 100 μg/ml S6 peptide substrate (related to amino acids 218-249 of the human 40S ribosomal protein S6, and suitable for ROCK1 or ROCK2, e.g. Upstate/Millipore Inc., cat #12-420), and 3 µM ATP are dispensed to wells of a 384 multi-well opaque plate. The plate is centrifuged for 30 seconds at approximately 200×g. 240 nl of test compound in DMSO is dispensed to each well by passive pin transfer. The lag phase of this in vitro kinase reaction permits addition of compounds soon after the reaction initiates. The reaction is allowed to incubate at 30° C. for 2 hours. The assay plates are sealed and maintained in a humidified environment. After 2 hours, 25 μl of easylite protein kinase assay reagent (Perkin-Elmer, Inc.) is dispensed. After an additional 10 minute incubation at room temperature (about 22° C.), luminescence activity is measured on a Molecular Devices Analyst multi-mode plate reader or other suitable plate reader. Kinase inhibition results in less ATP consumption, and therefore increased luminescence signal. Negative control activity is measured with DMSO lacking any test compound. The positive control is 2-methyl-1-(4-methylisoquinolin-5-ylsulfonyl)perhydro-1,4-diazepine hydrochloride (aka H-1152P, HCl salt). Efficacy is measured as a percentage of positive control activity. […] In some cases, kinase reactions and compound testing are performed in 1536 multi-well plates under similar conditions, with assay volumes appropriately scaled. The designation NT means the cited example was not tested.

T1 sequence (O75116 1-552): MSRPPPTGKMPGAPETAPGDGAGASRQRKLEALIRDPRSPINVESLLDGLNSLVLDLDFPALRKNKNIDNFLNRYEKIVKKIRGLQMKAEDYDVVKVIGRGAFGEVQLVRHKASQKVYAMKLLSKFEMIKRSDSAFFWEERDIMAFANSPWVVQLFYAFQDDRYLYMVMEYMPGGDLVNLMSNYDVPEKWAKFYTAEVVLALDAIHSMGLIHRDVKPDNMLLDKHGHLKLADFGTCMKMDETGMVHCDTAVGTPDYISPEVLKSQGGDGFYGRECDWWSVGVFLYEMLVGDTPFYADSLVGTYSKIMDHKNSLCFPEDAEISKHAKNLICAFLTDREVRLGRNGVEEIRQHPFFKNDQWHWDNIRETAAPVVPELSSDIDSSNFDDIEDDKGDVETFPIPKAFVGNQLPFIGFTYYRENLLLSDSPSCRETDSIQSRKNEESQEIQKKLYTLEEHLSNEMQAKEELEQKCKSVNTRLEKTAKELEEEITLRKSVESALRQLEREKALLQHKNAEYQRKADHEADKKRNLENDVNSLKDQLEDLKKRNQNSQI

Cc1c(-c2ccnc(N)n2)sc2ccc(C(=O)NC3CCCC3)cc12 [Example 346, Cc1c(sc2ccc(cc12)C(═O)NC3CCCC3)-c4ccnc(N)n4] and CNC(=O)c1ccc2sc(-c3ccnc(N)n3)c(C)c2c1 [Example 329, CNC(═O)c1ccc2sc(c(C)c2c1)-c3ccnc(N)n3] cannot be ordered by IC50: under 5 µM for the first, under 5 µM for the second.

First: Cc1c(-c2ccnc(N)n2)sc2ccc(C(=O)N3C[C@@H](C)N[C@@H](C)C3)cc12 [Example 485, C[C@@H]1CN(C[C@H](C)N1)C(═O)c2ccc3sc(c(C)c3c2)-c4ccnc(N)n4]
Second: CC(=O)N[C@H]1CCN(C(=O)c2ccc3sc(-c4ccnc(N)n4)c(C)c3c2)C1 [Example 495, CC(═O)N[C@H]1CCN(C1)C(═O)c2ccc3sc(c(C)c3c2)-c4ccnc(N)n4]
The IC50 of the first is lower: under 5 µM for the first, over 5 µM for the second. The first is the more potent here.

Cc1c(-c2ccnc(N)n2)sc2ccc(C(=O)N3CCN(c4ccc([N+](=O)[O-])cc4)CC3)cc12 [Example 552, Cc1c(sc2ccc(cc12)C(═O)N3CCN(CC3)c4ccc(cc4)[N+]([O−])═O)-c5ccnc(N)n5] and Cc1c(-c2ccnc(N)n2)sc2ccc(C(=O)N3CCN(c4ccc(F)cc4)CC3)cc12 [Example 526, Cc1c(sc2ccc(cc12)C(═O)N3CCN(CC3)c4ccc(F)cc4)-c5ccnc(N)n5] cannot be ordered by IC50: under 5 µM for the first, under 5 µM for the second.

CCOC(=O)CC(C)NC(=O)c1ccc2sc(-c3ccnc(N)n3)c(C)c2c1 (stereo not drawn) [Example 390, CCOC(═O)CC(C)NC(═O)c1ccc2sc(c(C)c2c1)-c3ccnc(N)n3] and Cc1c(-c2ccnc(N)n2)sc2ccc(C(=O)NCCC(C)C)cc12 [Example 350, CC(C)CCNC(═O)c1ccc2sc(c(C)c2c1)-c3ccnc(N)n3] cannot be ordered by IC50: under 5 µM for the first, under 5 µM for the second.

Cc1c(-c2ccnc(N)n2)sc2ccc(C(=O)NCc3ccco3)cc12 [Example 355, Cc1c(sc2ccc(cc12)C(═O)NCc3ccco3)-c4ccnc(N)n4] and Cc1ccccc1CNC(=O)c1ccc2sc(-c3ccnc(N)n3)c(C)c2c1 [Example 379, Cc1ccccc1CNC(═O)c2ccc3sc(c(C)c3c2)-c4ccnc(N)n4] cannot be ordered by IC50: under 5 µM for the first, under 5 µM for the second.

Going from Cc1c(-c2ccnc(N)n2)sc2ccc(C(=O)NCc3ccc(C(F)(F)F)cc3)cc12 [Example 444, Cc1c(sc2ccc(cc12)C(═O)NCc3ccc(cc3)C(F)(F)F)-c4ccnc(N)n4] to Cc1c(-c2ccnc(N)n2)sc2ccc(C(=O)NCc3ccc(Cl)cc3)cc12 [Example 410, Cc1c(sc2ccc(cc12)C(═O)NCc3ccc(Cl)cc3)-c4ccnc(N)n4], the IC50 falls from over 5 µM to under 5 µM. The second is the more potent here.

CCN(CCO)C(=O)c1ccc2sc(-c3ccnc(N)n3)c(C)c2c1 [Example 470, CCN(CCO)C(═O)c1ccc2sc(c(C)c2c1)-c3ccnc(N)n3] and CCCN(CCC)C(=O)c1ccc2sc(-c3ccnc(N)n3)c(C)c2c1 [Example 478, CCCN(CCC)C(═O)c1ccc2sc(c(C)c2c1)-c3ccnc(N)n3] cannot be ordered by IC50: under 5 µM for the first, under 5 µM for the second.

COc1ccc(CNC(=O)c2ccc3sc(-c4ccnc(N)n4)c(C)c3c2)cc1O [Example 451, COc1ccc(CNC(═O)c2ccc3sc(c(C)c3c2)-c4ccnc(N)n4)cc1O] and COc1ccc(CNC(=O)c2ccc3sc(-c4ccnc(N)n4)c(C)c3c2)cc1 [Example 403, COc1ccc(CNC(═O)c2ccc3sc(c(C)c3c2)-c4ccnc(N)n4)cc1] cannot be ordered by IC50: under 5 µM for the first, under 5 µM for the second.

Cc1c(-c2ccnc(N)n2)sc2ccc(C(=O)NCCN)cc12 [Example 336, Cc1c(sc2ccc(cc12)C(═O)NCCN)-c3ccnc(N)n3] and CCCN(C)C(=O)c1ccc2sc(-c3ccnc(N)n3)c(C)c2c1 [Example 463, CCCN(C)C(═O)c1ccc2sc(c(C)c2c1)-c3ccnc(N)n3] cannot be ordered by IC50: under 5 µM for the first, under 5 µM for the second.

Cc1c(-c2ccnc(N)n2)sc2ccc(C(=O)NCCc3ccc4c(c3)OCO4)cc12 [Example 456, Cc1c(sc2ccc(cc12)C(═O)NCCc3ccc4OCOc4c3)-c5ccnc(N)n5] and Cc1c(-c2ccnc(N)n2)sc2ccc(C(=O)NCc3ccc4c(c3)OCO4)cc12 [Example 420, Cc1c(sc2ccc(cc12)C(═O)NCc3ccc4OCOc4c3)-c5ccnc(N)n5] cannot be ordered by IC50: under 5 µM for the first, under 5 µM for the second.

Compared with Cc1ccc(N2CCN(C(=O)c3ccc4sc(-c5ccnc(N)n5)c(C)c4c3)CC2)cc1C [Example 537, Cc1ccc(cc1C)N2CCN(CC2)C(═O)c3ccc4sc(c(C)c4c3)-c5ccnc(N)n5], Cc1ccc(Cl)cc1N1CCN(C(=O)c2ccc3sc(-c4ccnc(N)n4)c(C)c3c2)CC1 [Example 554, Cc1ccc(Cl)cc1N2CCN(CC2)C(═O)c3ccc4sc(c(C)c4c3)-c5ccnc(N)n5] is lower in IC50: over 5 µM for the first, under 5 µM for the second. The second is the more potent here.

Going from Cc1c(-c2ccnc(N)n2)sc2ccc(C(=O)N3CCN(C(=O)OC(C)(C)C)CC3)cc12 [Example 530, Cc1c(sc2ccc(cc12)C(═O)N3CCN(CC3)C(═O)OC(C)(C)C)-c4ccnc(N)n4] to Cc1c(-c2ccnc(N)n2)sc2ccc(C(=O)N3CCC(NC(=O)OC(C)(C)C)C3)cc12 (stereo not drawn) [Example 531, Cc1c(sc2ccc(cc12)C(═O)N3CCC(C3)NC(═O)OC(C)(C)C)-c4ccnc(N)n4], the IC50 falls from over 5 µM to under 5 µM. The second is the more potent here.

Cc1c(-c2ccnc(N)n2)sc2ccc(C(=O)NCc3cc(F)cc(F)c3)cc12 [Example 414, Cc1c(sc2ccc(cc12)C(═O)NCc3cc(F)cc(F)c3)-c4ccnc(N)n4] and Cc1ccc(CNC(=O)c2ccc3sc(-c4ccnc(N)n4)c(C)c3c2)cc1 [Example 380, Cc1ccc(CNC(═O)c2ccc3sc(c(C)c3c2)-c4ccnc(N)n4)cc1] cannot be ordered by IC50: under 5 µM for the first, under 5 µM for the second.

Cc1c(-c2ccnc(N)n2)sc2ccc(C(=O)NN3CCOCC3)cc12 [Example 361, Cc1c(sc2ccc(cc12)C(═O)NN3CCOCC3)-c4ccnc(N)n4] and Cc1c(-c2ccnc(N)n2)sc2ccc(C(=O)N3CCOCC3)cc12 [Example 466, Cc1c(sc2ccc(cc12)C(═O)N3CCOCC3)-c4ccnc(N)n4] cannot be ordered by IC50: under 5 µM for the first, under 5 µM for the second.

Cc1c(-c2ccnc(N)n2)sc2ccc(C(=O)N3CCN(c4cccc(C(F)(F)F)c4)CC3)cc12 [Example 566, Cc1c(sc2ccc(cc12)C(═O)N3CCN(CC3)c4cccc(c4)C(F)(F)F)-c5ccnc(N)n5] and Cc1c(-c2ccnc(N)n2)sc2ccc(C(=O)N3CCN(c4ccc(Cl)c(Cl)c4)CC3)cc12 [Example 567, Cc1c(sc2ccc(cc12)C(═O)N3CCN(CC3)c4ccc(Cl)c(Cl)c4)-c5ccnc(N)n5] cannot be ordered by IC50: over 5 µM for the first, over 5 µM for the second.

Cc1c(-c2ccnc(N)n2)sc2ccc(C(=O)NCCN3CCCCC3)cc12 [Example 387, Cc1c(sc2ccc(cc12)C(═O)NCCN3CCCCC3)-c4ccnc(N)n4] and Cc1c(-c2ccnc(N)n2)sc2ccc(C(=O)NCCN3CCOCC3)cc12 [Example 389, Cc1c(sc2ccc(cc12)C(═O)NCCN3CCOCC3)-c4ccnc(N)n4] cannot be ordered by IC50: under 5 µM for the first, under 5 µM for the second.

Compared with Cc1c(-c2ccnc(N)n2)sc2ccc(C(=O)N3CCN(c4ccc(C(C)(C)C)cc4)CC3)cc12 [Example 562, Cc1c(sc2ccc(cc12)C(═O)N3CCN(CC3)c4ccc(cc4)C(C)(C)C)-c5ccnc(N)n5], Cc1c(-c2ccnc(N)n2)sc2ccc(C(=O)N3CCN(c4ccccc4C#N)CC3)cc12 [Example 532, Cc1c(sc2ccc(cc12)C(═O)N3CCN(CC3)c4ccccc4C#N)-c5ccnc(N)n5] is higher in IC50: under 5 µM for the first, over 5 µM for the second. The first is the more potent here.

Cc1c(-c2ccnc(N)n2)sc2ccc(C(=O)NCCCN(C)c3ccccc3)cc12 [Example 437, CN(CCCNC(═O)c1ccc2sc(c(C)c2c1)-c3ccnc(N)n3)c4ccccc4] and Cc1c(-c2ccnc(N)n2)sc2ccc(C(=O)N(CCO)Cc3ccccc3)cc12 [Example 506, Cc1c(sc2ccc(cc12)C(═O)N(CCO)Cc3ccccc3)-c4ccnc(N)n4] cannot be ordered by IC50: under 5 µM for the first, under 5 µM for the second.

Going from Cc1c(-c2ccnc(N)n2)sc2ccc(C(=O)N(CCc3ccccc3)Cc3ccccc3)cc12 [Example 556, Cc1c(sc2ccc(cc12)C(═O)N(CCc3ccccc3)Cc4ccccc4)-c5ccnc(N)n5] to Cc1c(-c2ccnc(N)n2)sc2ccc(C(=O)NC3CCc4ccccc43)cc12 (stereo not drawn) [Example 391, Cc1c(sc2ccc(cc12)C(═O)NC3CCc4ccccc34)-c5ccnc(N)n5], the IC50 falls from over 5 µM to under 5 µM. The second is the more potent here.

Going from COc1cc2c(cc1OC)CN(C(=O)c1ccc3sc(-c4ccnc(N)n4)c(C)c3c1)CC2 [Example 564, COc1cc2CCN(Cc2cc1OC)C(═O)c3ccc4sc(c(C)c4c3)-c5ccnc(N)n5] to Cc1c(-c2ccnc(N)n2)sc2ccc(C(=O)N3CCC(N(C)C(=O)OC(C)(C)C)C3)cc12 (stereo not drawn) [Example 549, CN(C1CCN(C1)C(═O)c2ccc3sc(c(C)c3c2)-c4ccnc(N)n4)C(═O)OC(C)(C)C], the IC50 rises from under 5 µM to over 5 µM. The first is the more potent here.

First: CCN(C(=O)c1ccc2sc(-c3ccnc(N)n3)c(C)c2c1)C(C)C [Example 468, CCN(C(C)C)C(═O)c1ccc2sc(c(C)c2c1)-c3ccnc(N)n3]
Second: Cc1c(-c2ccnc(N)n2)sc2ccc(C(=O)N3CCN(CCN4CCOCC4)CC3)cc12 [Example 548, Cc1c(sc2ccc(cc12)C(═O)N3CCN(CCN4CCOCC4)CC3)-c5ccnc(N)n5]
The IC50 of the first is lower: under 5 µM for the first, over 5 µM for the second. The first is the more potent here.
